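96-well plates; 48 h exposure; 5 concentrations. Endpoints by linear interpolation between flanking doses. Not reached: highest tested concentration assigned. The concentration for 50% growth inhibition is given as GI50.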 The source made the active and inactive calls. No stated cut-off is given here; in the data, active = GI50 up to about 1.1 µM and inactive = higher.
Columns and labels:
Experiment in all cases: inhibition of tumour cell growth, NCI panel, 48 h
[1] = tested on: SNB-19
[2] = tested on: OVCAR-8
[3] = tested on: MDA-N
[4] = tested on: UACC-62
[5] = tested on: Hs-578T
[6] = tested on: ACHN
[7] = tested on: DU-145
[8] = tested on: HCT-15
[9] = tested on: A549
[10] = tested on: SK-OV-3
[11] = tested on: LOX IMVI
[12] = tested on: MOLT-4
[13] = tested on: IGROV-1
[14] = tested on: OVCAR-5
[15] = tested on: HOP-92
[16] = tested on: OVCAR-4
[17] = tested on: NCI-H522
[18] = tested on: HCT-116
[19] = tested on: 786-0
[20] = tested on: SK-MEL-5
[21] = tested on: PC-3
[22] = tested on: CCRF-CEM
[23] = tested on: NCI-H23
[24] = tested on: T47D
[25] = tested on: SK-MEL-28
[26] = tested on: SN12C
[27] = tested on: HT-29
[28] = tested on: M14
[29] = tested on: A498
[30] = tested on: NCI-H460
[31] = tested on: HCC 2998
[32] = tested on: MDA-MB-231
[33] = tested on: U-251
[34] = tested on: HL-60
[35] = tested on: UACC-257
[36] = tested on: CAKI-1
[37] = tested on: RPMI-8226
[38] = tested on: KM12
[39] = tested on: NCI/ADR-RES
[40] = tested on: MDA-MB-435
[41] = tested on: K562
[42] = tested on: Malme-3M
[43] = tested on: SR
[44] = tested on: SNB-75
[45] = tested on: SF-539
[46] = tested on: NCI-H226
[47] = tested on: MCF7
[48] = tested on: HOP-62
[49] = tested on: UO-31
[50] = tested on: SF-295
[51] = tested on: SW-620
[52] = tested on: SF-268
[53] = tested on: OVCAR-3
[54] = tested on: RXF 393
[55] = tested on: TK-10
[56] = tested on: EKVX
[57] = tested on: COLO 205
[58] = tested on: SK-MEL-2

In the case of `CC(C)=CCc1ccc2[nH]c3c(c2c1)C(=O)C(=O)C(C)=C3C(O)C(C)O` (stereo not drawn), the GI50 [1] is reported as 17 µM (inactive), the GI50 [2] is reported as 2.13 µM (inactive) and the GI50 [3] is reported as 3.06 µM (inactive). The GI50 [4] was 5.52 µM (inactive), the GI50 [5] was 15.1 µM (inactive) and the GI50 [6] was 4.27 µM (inactive). The GI50 [7] was 10.5 µM (inactive), the GI50 [8] was 2.32 µM and the GI50 [9] was 21.8 µM (inactive). The GI50 [10] was 16.2 µM (inactive), the GI50 [11] was 2 µM (inactive) and the GI50 [12] was 1.7 µM (inactive). The GI50 [13] was 2.36 µM (inactive), the GI50 [14] was 18.4 µM (inactive) and the GI50 [15] was 1.51 µM (inactive). The GI50 [16] was 3.72 µM (inactive), the GI50 [17] was 1.69 µM (inactive) and the GI50 [18] was 1.78 µM (inactive). For the same molecule, the GI50 [19] was 1.87 µM (inactive), the GI50 [20] was 2.45 µM (inactive) and the GI50 [21] was 9.57 µM (inactive). The GI50 [22] was 1.55 µM (inactive), the GI50 [23] was 5.4 µM (inactive) and the GI50 [24] was 2.29 µM (inactive). For the same molecule, the GI50 [25] was 7.19 µM (inactive), the GI50 [26] was 8.55 µM (inactive) and the GI50 [27] was 9.33 µM (inactive). For the same molecule, the GI50 [28] was 1.91 µM (inactive), the GI50 [29] was 12.5 µM (inactive) and the GI50 [30] was 14.1 µM (inactive). The GI50 [31] was 6.38 µM (inactive), the GI50 [32] was 3.54 µM (inactive) and the GI50 [33] was 6.03 µM (inactive). The GI50 [34] was 0.769 µM (active), the GI50 [35] was 2.06 µM (inactive) and the GI50 [36] was 4.38 µM (inactive). The GI50 [37] was 1.82 µM (inactive), the GI50 [38] was 16.5 µM (inactive) and the GI50 [39] was 15.1 µM (inactive). For the same molecule, the GI50 [40] was 2.85 µM (inactive), the GI50 [41] was 2.07 µM (inactive) and the GI50 [42] was 1.78 µM (inactive). For the same molecule, the GI50 [43] was 2.45 µM (inactive), the GI50 [44] was 17.7 µM (inactive) and the GI50 [45] was 5.98 µM (inactive). For the same molecule, the GI50 [46] was 15.1 µM (inactive), the GI50 [47] was 1.63 µM (inactive) and the GI50 [48] was 20.3 µM (inactive). The GI50 [49] was 1.55 µM (inactive), the GI50 [50] was 12.2 µM (inactive) and the GI50 [51] was 2.09 µM (inactive). The GI50 [52] was 12.9 µM (inactive), the GI50 [53] was 2.96 µM (inactive) and the GI50 [54] was 2.17 µM (inactive). For the same molecule, the GI50 [55] was 2.52 µM (inactive), the GI50 [56] was 16.1 µM (inactive) and the GI50 [57] was 2.16 µM (inactive). The GI50 [58] was 8.2 µM (inactive).

Reference: ChEMBL document CHEMBL1201862, “PubChem BioAssay data set” (2004)
